{
  "source": "patent US6425888B1",
  "about": "“Ocular treatment device” (R. P. Scherer Corporation, priority 1994, dated 2002)",
  "tested_on": "rabbits",
  "experiment": "Miotic response (pupil diameter) of rabbits after a single spray from the blister crushing device of FIG. 18",
  "type": "in vivo, rabbit",
  "conditions": "left eye, mean of 5 rabbits",
  "excerpt": "The device of FIG. 18 was used in a study of the ocular response of rabbits to treatment according to the invention. The rabbits selected for the study were allowed to acclimatise for 4-5 days prior to treatment. They were subjected to manual restraining for 2 days prior to the study to condition them to the procedures involved in dosing. A device of the kind illustrated in FIG. 18 was then used to administer a single spray of isotonic 2% Pilocarpine hydrochloride (Pilocarpine HCl) solution to the corneal surface of the left eve of each of 5 rabbits, the right eyes remaining undosed. The following settings were used: 100 μm nozzle diameter 2.5 cm distance between nozzle tip and animal eye Sprays targeted towards the centre of the cornea of the animal eye The miotic response (reduction in pupil diameter) at various intervals following the application of the pilocarpine HCl solution was monitored under constant illumination using video photography. The pupil diameter of the left eye was expressed in proportion to the diameter of a fixed reference aperture situated at an equal distance from the video camera. The actual diameter was then calculated from the known diameter of the reference aperture.",
  "note": "Counter-ions that a name gives are not always drawn.",
  "data": [
    {"smiles": "CC[C@@H]1C(=O)OC[C@@H]1Cc1cncn1C", "note": "[Pilocarpine HCl, Pilocarpine hydrochloride]", "values": [
      {"measurement": "Pupil Diameter", "setting": "+15 min after dose", "result": 6.7, "unit": "mm"},
      {"measurement": "Pupil Diameter", "setting": "+30 min after dose", "result": 6.8, "unit": "mm"},
      {"measurement": "Pupil Diameter", "setting": "+45 min after dose", "result": 6.9, "unit": "mm"},
      {"measurement": "Pupil Diameter", "setting": "+1 hr after dose", "result": 6.8, "unit": "mm"},
      {"measurement": "Pupil Diameter", "setting": "+1.5 hr after dose", "result": 6.9, "unit": "mm"},
      {"measurement": "Pupil Diameter", "setting": "+2 hr after dose", "result": 7.3, "unit": "mm"},
      {"measurement": "Pupil Diameter", "setting": "+2.5 hr after dose", "result": 7.8, "unit": "mm"},
      {"measurement": "Pupil Diameter", "setting": "+3 hr after dose", "result": 7.9, "unit": "mm"},
      {"measurement": "Pupil Diameter", "setting": "+3.5 hr after dose", "result": 8.0, "unit": "mm"},
      {"measurement": "Pupil Diameter", "setting": "+4 hr after dose", "result": 7.8, "unit": "mm"},
      {"measurement": "Pupil Diameter", "setting": "Dose (0 min), single spray of isotonic 2% solution to cornea", "result": 7.8, "unit": "mm"}
    ]}
  ]
}
